Patent publication US5605911A, “Use of alpha-2 adrenergic drugs to prevent adverse effects of NMDA receptor hypofunction (NRH)” (priority 1995, dated 1997)

What was measured:
[1] = test system: NMDA receptor; settings: humans, literature; cited from earlier work
[2] = test system: cerebral cortex; settings: adult rat, literature; cited from earlier work
[3] = penetration of sulpiride into the CNS; assay type: in vivo; settings: in words
[4] = test system: PC/RS cortical neurons; assay: protection by anti-psychotic drugs against MK-801 (NRH)-induced vacuoles in rats; assay type: in vivo; settings: ip; for protection against vacuoles (activity in words): MK-801-treated rats
Experimental: Control animals received saline or DMSO, but no anti-psychotic drugs. Test animals were injected ip with an antipsychotic drug, listed above and in Table 2. Vacuoles were counted and data were processed as described in Example 1.

[5] = Sershen 1994; cited from earlier work

c1ccc(C2(N3CCCCC3)CCCCC2)cc1 [Phencyclidine]
psychotomimetic reactions [1]: can induce a psychosis which is clinically indistinguishable from schizophrenia
pathomorphological changes in brain [2]: produce pathomorphological changes in various corticolimbic regions of the adult rat brain

CCN1CCCC1CNC(=O)c1cc(S(N)(=O)=O)ccc1OC (stereo not shown) [Sulpiride]
time to penetrate into the CNS [3]: several hours
ED50 ([4]; Rattus norvegicus, Cortical neurone): > 200 mg/kg
protection against vacuoles (activity in words) [4]: Inactive
protection against vacuoles (activity in words) ([4]; listed as sulpiride): inactive

CC[C@H]1C[C@H]2C[C@H]3c4[nH]c5ccc(OC)cc5c4CCN(C2)[C@@H]13 [ibogaine]
craving for cocaine [5]: can suppress the craving for cocaine
